Measured values from US20080031868A1, “HUMAN LYSOZYME MEDICINE, ITS MANUFACTURING METHOD AND APPLICATION THEREOF” (priority 2005, published 2008).
Marks after values point to notes of the source that are not given here.

Assays:
[1] = system: Staphylococcus aureus MRSABAA-42; test: Bronchus pneumonia mice infected by Staphylococcus aureus MRSA BAA-42, treated by atomization inspiring; assay type: in vivo; settings: for survival rate (%): 14 days; for bacterial number: mice lung
Description: A, atomization sucks gene recombinant Human Lysozyme (HLZ) cured bronchus pneumonia mice infected by Staphylococcus aureus MRSABAA-42
Choose the test lawn, after washing with the physiological saline, correcting by McB tubes for comparative tests bacterium solution concentration 2#MCF, turbidity of 2.7×10^11 CFU/ml, diluted with physiological saline separately into 10^−1, 10^−2, 10^−3 bacterium solution, drip the nose to infect for mice respectively (anaesthetize the mice with the pentobarbital first, 30 mg/kg, ip.), 0.05 ml a mouse. Observed the mice body changing, and killed parts of mice after infecting 48 h, fetch the whole lung to tissue homogenate, 10 times diluted by physiological saline, draw 0.1 m1 to MH agar plate surface, to cultivate last night 35° C., Gram staining, test under microscope, and count plate. At the same time recorded the number of death mice, and collect some mice tracheas, bronchus, lung tissue and do pathology tissue observing.
It is called medial lethal dose (LD50) that bacterium amount caused mice appearing lung pharmacology change and 50% died. LD50was used as experimental treatment amount.
Infected mice is divided into 10 groups at random according to the weight, 30 every groups.
Designed dosage: The concentration of recombinant human lysozyme medicine was 15000 u/ml as in clinical atomization therapy. Its dose was 15000 u per time and administrated one time everyday, I.e 0.5 mg per time everyday. The dose was 1.3×10-3 mg a mice (counted by weight of 20 g). […] To ensure the breathing amount of lysozyme, the breathing time were extended for 0.5 hour. Based on 0.5 mg/ml, the concentration of 0.25 mg/ml, 1.0 mg/ml and 2.0 mg/ml were set respectively as treatment dose.
The same group mice were put into the ultrasonic atomizer and then treated with human lysozyme atomized in the compression sprayer (PARL.BOY), twice a day, 5 days in succession.
Every group, from the infected day to calculae, the animal incidence and death were recorded 14 days in succession. Every group collected 2-3 mice and killed them the 14th day after infecting, did bacteriology detection after lung homogenate, killed surplus animal to fetch the trachea, bronchus, fixed in 10% of the formaldehyde solution after weighing, did pathology check.
The bacterial culture: A part of mice were killed after infecting 24 h, fetched the whole lung weighting, added 2 ml degerming PBS solution 10 times diluted, draw 0.1 mL to MH agar plate surface, to cultivate last night 35° C., counted in the cultivation plateform of 30-300 CF, if the two close level tissue fluid is 30-300 CFU, counted the low density (make 3 plateforms at the same time each tissue fluid, calculate the average). Collected 2 mice to do bacterial culture in every group at random in 5, 7, 14 days after administration.
Pathology detection: After dissecting the mice, observed the trachea, bronchus, syncretio of lung, chest wall and membrana pleuralis, the volume of lung and size of lung focus, the lung surface was congested, hydroncus, consolidation and atelectasis by the naked eye. Took out the trachea, bronchus and the whole lung tissue to fixed with 10% of the formaldehyde solution, draw materials.

[2] = system: Staphylococcus aureus MRSABAA-42; test: as above; assay type: in vivo; settings: for accumulative survival number: 30 mice; for survival elevation rate (%): versus infected model group
[3] = 0.25 mg/ml atomization inspired, listed as gene recombinant human lysozyme
[4] = 0.25 mg/ml atomization inspired, listed as recombinant human lysozyme
[5] = 0.25 mg/ml atomization inspired
[6] = 0.25 mg/ml atomization inspired, 14 days
[7] = 0.5 mg/ml atomization inspired, 14 days

For “Human lysozyme: gene recombinant Human Lysozyme (HLZ), active unit 30000 u/mg, batch number 020110; given atomized / as aerosol”, the “survival rate (%)” value [1, 3] was 40%, the “survival rate (%)” value [1, 4] was 40% and the “average survival day (day, x ± s)” value [1, 3] was 9.30 ± 4.08 days. The “average survival day (day, x ± s)” value [1, 4] was 9.30 ± 4.08 days, the “Death number(piece)” value ([1]; 0.5 mg/ml atomization inspired, day 7) was 4 piece and the “average survival day (day, x ± s)” value ([1]; 0.5 mg/ml atomization inspired, listed as gene recombinant human lysozyme) was 10.3 ± 3.77 days. For the same substance, the “average survival day (day, x ± s)” value ([1]; 0.5 mg/ml atomization inspired, listed as recombinant human lysozyme) was 3.77 ± 10.3 days, the “survival number” value ([1]; 1 mg/ml atomization inspired, 30 mice) was 17 and the average survive days ([1]; 1 mg/ml atomization inspired, listed as gene recombinant human lysozyme) was 11.2 ± 3.36 days. For the same substance, the average survive days ([1]; 1 mg/ml atomization inspired, listed as recombinant human lysozyme) was 11.23 ± 3.36 days, the “Death number(piece)” value ([1]; 2 mg/ml atomization inspired, day 8) was 2 piece and the “average survival day (day, x ± s)” value ([1]; 2 mg/ml atomization inspired, listed as gene recombinant human lysozyme) was 12.93 ± 2.05 days. For the same substance, the “average survival day (day, x ± s)” value ([1]; 2 mg/ml atomization inspired, listed as recombinant human lysozyme) was 12.93 ± 2.05 days, the “result of pathology detection of the mice lung tissue” value ([1]; high dose 2 mg/ml, 14th day) was “normal basically” and the “result of pathology detection of the mice trachea” value ([1]; high dose 2 mg/ml, 14th day) was “Normal basically”. The “result of pathology detection of the mice lung tissue” value ([1]; low dose 0.5 mg/ml, 14th day) was “bronchiole alveolar wall tissue gently thickening, few”, the “result of pathology detection of the mice lung tissue” value ([1]; medium dose 1 mg/ml, 7th day) was “few monocaryon infiltrating” and the bacterial number ([1]; atomization inspired 0.5 (15000 u/piece), 0 day) was 350 ± 21.5 CFU/mL. The bacterial number ([1]; atomization inspired 1 (30000 u/piece), the 5th day) was 78.30 ± 17.86**^ΔΔ CFU/mL, the bacterial number ([1]; atomization inspired 2 (60000 u/piece), 0 day) was 350 ± 21.5 CFU/mL and the “95% feasible limits of ED50” value ([1]; mice survival over 14 days, Bliss method) was 200 to 900 µg/mL. For the same substance, the “ED50 (median effective dose)” value ([1]; mice survival over 14 days, Bliss method, atomization inspired) was 530 µg/mL, the “average survival day (day, x ± s)” value [2, 5] was 9.30 ± 4.08 days and the accumulative survival number [2, 6] was 12. The “survival rate (%)” value [2, 6] was 40.0%, the “Death number(piece)” value ([2]; 0.25 mg/ml atomization inspired, day 1) was 0 piece and the “Death number(piece)” value ([2]; 0.25 mg/ml atomization inspired, day 2) was 0 piece. For the same substance, the “Death number(piece)” value ([2]; 0.25 mg/ml atomization inspired, day 3) was 1 piece, the “Death number(piece)” value ([2]; 0.25 mg/ml atomization inspired, day 4) was 2 piece and the “Death number(piece)” value ([2]; 0.25 mg/ml atomization inspired, day 5) was 3 piece. For the same substance, the “Death number(piece)” value ([2]; 0.25 mg/ml atomization inspired, day 6) was 3 piece, the “Death number(piece)” value ([2]; 0.25 mg/ml atomization inspired, day 7) was 5 piece and the “Death number(piece)” value ([2]; 0.25 mg/ml atomization inspired, day 8) was 4 piece. For the same substance, the “Death number(piece)” value ([2]; 0.25 mg/ml atomization inspired, day 9) was 0 piece, the “Death number(piece)” value ([2]; 0.25 mg/ml atomization inspired, day 10) was 0 piece and the “Death number(piece)” value ([2]; 0.25 mg/ml atomization inspired, day 11) was 0 piece. For the same substance, the “Death number(piece)” value ([2]; 0.25 mg/ml atomization inspired, day 12) was 0 piece, the “Death number(piece)” value ([2]; 0.25 mg/ml atomization inspired, day 13) was 0 piece and the “Death number(piece)” value ([2]; 0.25 mg/ml atomization inspired, day 14) was 0 piece. The “survival elevation rate (%)” value [2, 5] was 23.3%, the “average survival day (day, x ± s)” value ([2]; 0.5 mg/ml atomization inspired) was 10.3 ± 3.77***^Δ day and the accumulative survival number [2, 7] was 14. For the same substance, the “survival rate (%)” value [2, 7] was 46.7%, the “Death number(piece)” value ([2]; 0.5 mg/ml atomization inspired, day 1) was 0 piece and the “Death number(piece)” value ([2]; 0.5 mg/ml atomization inspired, day 2) was 0 piece. For the same substance, the “Death number(piece)” value ([2]; 0.5 mg/ml atomization inspired, day 3) was 0 piece, the “Death number(piece)” value ([2]; 0.5 mg/ml atomization inspired, day 4) was 2 piece and the “Death number(piece)” value ([2]; 0.5 mg/ml atomization inspired, day 5) was 2 piece. The “Death number(piece)” value ([2]; 0.5 mg/ml atomization inspired, day 6) was 3 piece, the “Death number(piece)” value ([2]; 0.5 mg/ml atomization inspired, day 8) was 5 piece and the “Death number(piece)” value ([2]; 0.5 mg/ml atomization inspired, day 9) was 0 piece. The “Death number(piece)” value ([2]; 0.5 mg/ml atomization inspired, day 10) was 0 piece, the “Death number(piece)” value ([2]; 0.5 mg/ml atomization inspired, day 11) was 0 piece and the “Death number(piece)” value ([2]; 0.5 mg/ml atomization inspired, day 12) was 0 piece. The “Death number(piece)” value ([2]; 0.5 mg/ml atomization inspired, day 13) was 0 piece, the “Death number(piece)” value ([2]; 0.5 mg/ml atomization inspired, day 14) was 0 piece and the “survival elevation rate (%)” value ([2]; 0.5 mg/ml atomization inspired) was 30.0%. The survival rate ([2]; 1 mg/ml atomization inspired, 14 days) was 56.7% and the “average survival day (day, x ± s)” value ([2]; 2 mg/ml atomization inspired) was 12.93 ± 2.05***^ΔΔΔ day.
